Reference: ChEMBL document CHEMBL5608215, “Development of amphipathic derivatives of thymol and carvacrol as potent broad-spectrum antibacterial agents” (Eur J Med Chem, 2024)
Values after ≈ are worked out from the molar mass of the structure shown. Active and inactive are the calls of the source. The calls are words filed in the database; no cut-off is given here.

Experiments:
[1] = test system: Staphylococcus aureus; assay: Antibacterial activity against methicillin-resistant Staphylococcus aureus 21-5 by CLSI based serial dilution method; type: functional
[2] = test system: Enterococcus; assay: Antibacterial activity against vancomycin-resistant Enterococcus ATCC51299 by CLSI based serial dilution method; type: functional
[3] = test system: Enterococcus faecalis; assay: Antibacterial activity against Enterococcus faecalis ATCC29212 by CLSI based serial dilution method; type: functional
[4] = test system: Pseudomonas aeruginosa; assay: Antibacterial activity against Pseudomonas aeruginosa ATCC27853 by CLSI based serial dilution method; type: functional
[5] = test system: Escherichia coli; assay: Antibacterial activity against Escherichia coli ATCC25922 by CLSI based serial dilution method; type: functional
[6] = test system: Staphylococcus aureus; assay: Antibacterial activity against Staphylococcus aureus ATCC29213 by CLSI based serial dilution method; type: functional
[7] = test system: Staphylococcus aureus; assay: Antibacterial activity against Staphylococcus aureus ATCC29213 infected in mouse model assessed as bacterial load in abscesses at 5 mg/kg, sc measured after 24 hrs; type: functional
[8] = test system: Staphylococcus aureus; assay: Antibacterial activity against Staphylococcus aureus ATCC29213 infected in mouse model assessed as normalization of skin cell morphology at 5 mg/kg, sc measured after 24 hrs by H and E staining based analysis; type: functional, organism-based
[9] = test system: Staphylococcus aureus; assay: Antibacterial activity against Staphylococcus aureus ATCC29213 infected in mouse model assessed as reduction in inflammatory factors in skin at 5 mg/kg, sc measured after 24 hrs by H and E staining based analysis; type: functional, organism-based

| SMILES | MIC [1] [µg/mL] | MIC [2] [µg/mL] | MIC [3] [µg/mL] | MIC [4] [µg/mL] | MIC [5] [µg/mL] | MIC [6] [µg/mL] | Activity [7] [log10CFU/g] | Activity [8] | Activity [9] |
| --- | --- | --- | --- | --- | --- | --- | --- | --- | --- |
| Cc1ccc(C(C)C)c(O)c1 [THYMOL] | > 128 | > 128 | > 128 | > 128 | 128 (≈ 852 µM) | > 128 |  |  |  |
| Cc1ccc(C(C)C)cc1OCCCC[N+](C)(C)CC(=O)N1CCSCC1.[Br-] | 64 | 128 | 64 | > 128 | 128 | 32 |  |  |  |
| CCCCN(CCCC)C(=O)C[N+](C)(C)CCCCOc1cc(C(C)C)ccc1C.[Br-] | 4 | 16 | 4 | 128 | 32 | 2 |  |  |  |
| CCCCCCCNC(=O)C[N+](C)(C)CCCOc1cc(C(C)C)ccc1C.[Br-] | 16 | 4 | 2 | 16 | 8 | 2 |  |  |  |
| CCCCNC(=O)C[N+](C)(C)CCCCCOc1cc(C(C)C)ccc1C.[Br-] | 16 | 128 | 16 | > 128 | > 64 | 16 |  |  |  |
| Cc1ccc(C(C)C)cc1OCCC[N+](C)(C)CC(=O)N1CCOCC1.[Br-] | > 128 | > 128 | 128 | > 128 | > 128 | 128 |  |  |  |
| Cc1ccc(C(C)C)cc1OCCCC[N+](C)(C)CC(=O)N1CCOCC1.[Br-] | > 128 | > 128 | > 128 | > 128 | > 128 | > 128 |  |  |  |
| CCCCN(CCCC)C(=O)C[N+](C)(C)CCCCOc1cc(C)ccc1C(C)C.[Br-] | 2 | 8 | 8 | > 128 | 128 | 2 |  |  |  |
| CCCCCNC(=O)C[N+](C)(C)CCCCOc1cc(C(C)C)ccc1C.[Br-] | 8 | 16 | 8 | 128 | 16 | 4 |  |  |  |
| CCCCCNC(=O)C[N+](C)(C)CCCCOc1cc(C)ccc1C(C)C.[Br-] | 8 | 32 | 16 | > 128 | 32 | 8 |  |  |  |
| Cc1ccc(C(C)C)cc1O [CARVACROL] | > 128 | > 128 | 128 (≈ 852 µM) | > 128 | 128 (≈ 852 µM) | > 128 |  |  |  |
| Cc1ccc(C(C)C)cc1OCCCCC[N+](C)(C)CC(=O)N1CCOCC1.[Br-] | 128 | > 128 | 128 | > 128 | > 128 | 128 |  |  |  |
| CCCCCCN(CCCCCC)C(=O)C[N+](C)(C)CCCCCOc1cc(C)ccc1C(C)C.[Br-] | > 128 | > 128 | > 128 | > 128 | > 128 | > 128 |  |  |  |
| CN[C@H](CC(C)C)C(=O)N[C@H]1C(=O)N[C@@H](CC(N)=O)C(=O)N[C@H]2C(=O)N[C@H]3C(=O)N[C@H](C(=O)N[C@H](C(=O)O)c4cc(O)cc(O)c4-c4cc3ccc4O)[C@H](O)c3ccc(c(Cl)c3)Oc3cc2cc(c3O[C@@H]2O[C@H](CO)[C@@H](O)[C@H](O)[C@H]2O[C@H]2C[C@](C)(N)[C@H](O)[C@H](C)O2)Oc2ccc(cc2Cl)[C@H]1O [VANCOMYCIN] |  | > 128 | 2 (≈ 1.38 µM) | > 128 | 128 (≈ 88.3 µM) |  | 3.2 | Active | Active |
| Cc1ccc(C(C)C)c(OCCCCC[N+](C)(C)CC(=O)N2CCOCC2)c1.[Br-] | > 128 | > 128 | 128 | > 128 | > 128 | 128 |  |  |  |
| Cc1ccc(C(C)C)c(OCCCC[N+](C)(C)CC(=O)N(CC(C)C)CC(C)C)c1.[Br-] | 4 | 16 | 8 | > 128 | 64 | 4 |  |  |  |
